# Measurements as given in the supplement of paper PMC10331698.
# ± gives the standard deviation of the averaged measurements.
# Assays:
# Test in all cases: level (log10 ratio to DMSO vehicle control); higher = higher biomarker level / cell amount than vehicle control
# Conditions in all cases: in DMSO
# [1] = compound: FC(F)(F)C(F)(F)C(F)(F)C(F)(F)C(F)(F)C(F)(F)C(F)(F)I [1-Iodopentadecafluoroheptane]
# Procedure: (§1)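 BioMAP Diversity Plus panel of 12 human primary cell co-culture systems (3C, 4H, LPS, SAg, BT, BF4T, BE3C, CASM3C, HDF3CGF, KF3CT, MyoF, Mphg). Compounds were added 1 h before stimulation and left for 24 h (MyoF 48 h; BT 72 h for soluble read-outs or 6 d for IgG). Biomarkers were read by ELISA, cytotoxicity by SRB, PBMC viability and proliferation by Alamar Blue. Each well value was divided by the mean of 8 DMSO control wells on the same plate and log10 transformed; duplicate blinded samples were tested at 4 concentrations.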
# [2] = compound: FC(F)(F)C(F)(F)C(F)(F)CC1CO1 [1H,1H-Heptafluorobutyl epoxide]
# Procedure: as §1
# [3] = compound: O=S(=O)(Cl)C(F)(F)C(F)(F)C(F)(F)C(F)(F)C(F)(F)C(F)(F)C(F)(F)C(F)(F)F [Perfluoro-1-octanesulfonyl chloride]
# Procedure: as §1
# [4] = compound: O=S(=O)(F)C(F)(F)C(F)(F)C(F)(F)C(F)(F)C(F)(F)C(F)(F)C(F)(F)C(F)(F)F [Perfluorooctanesulfonyl fluoride]
# Procedure: as §1
# [5] = compound: O=S(=O)(O)C(F)(F)C(F)(F)C(F)(F)C(F)(F)C(F)(F)C(F)(F)C(F)(F)C(F)(F)C(F)(F)C(F)(F)F [Sodium perfluorodecanesulfonate]
# Procedure: as §1
Test System,level (log10) ([1]; 6700 nM),level (log10) ([1]; 20000 nM),level (log10) ([2]; 6700 nM),level (log10) ([2]; 20000 nM),level (log10) ([2]; 60000 nM),level (log10) ([3]; 6700 nM),level (log10) ([3]; 20000 nM),level (log10) ([3]; 60000 nM),level (log10) ([4]; 6700 nM),level (log10) ([4]; 20000 nM),level (log10) ([4]; 60000 nM),level (log10) ([5]; 1500 nM),level (log10) ([5]; 4400 nM),level (log10) ([5]; 13000 nM),level (log10) ([5]; 40000 nM)
3C:CCL2/MCP-1,-0.0175 ± 0.005,0.023 ± 0.027,0.0005 ± 0.0064,-0.011 ± 0.0071,-0.0025 ± 0.023,-0.009 ± 0.0085,-0.0025 ± 0.0092,0.017 ± 0.0014,-0.014 ± 0.0014,-0.0215 ± 0.011,0.001 ± 0.021,0.0315 ± 0.005,-0.0195 ± 0.026,0.005 ± 0.033,0.0655 ± 0.032
3C:CD62E/E-Selectin,-0.0085 ± 0.00071,-0.003 ± 0.011,-0.011 ± 0.023,0.002 ± 0.013,0.0075 ± 0.0035,-0.017 ± 0.0071,0.0135 ± 0.021,0.11 ± 0.021,-0.006 ± 0.0057,-0.01,-0.006 ± 0.024,0.0005 ± 0.0035,0.002 ± 0.0071,0.0185 ± 0.028,0.057 ± 0.05
3C:CD87/uPAR,-0.0165 ± 0.018,-0.0175 ± 0.0078,-0.0185 ± 0.026,0 ± 0.021,-0.01 ± 0.0071,0.011 ± 0.024,-0.0065 ± 0.016,-0.199 ± 0.033,-0.0125 ± 0.012,-0.0085 ± 0.012,-0.006 ± 0.0014,-0.0055 ± 0.047,-0.0275 ± 0.013,-0.009 ± 0.037,-0.222 ± 0.0085
3C:CD106/VCAM-1,-0.0165 ± 0.016,-0.005 ± 0.011,-0.0315 ± 0.023,-0.0385 ± 0.013,-0.012 ± 0.011,0.008 ± 0.013,0.028 ± 0.0099,0.0325 ± 0.013,-0.009 ± 0.0099,-0.003 ± 0.013,-0.01 ± 0.023,-0.0035 ± 0.0035,0.0055 ± 0.011,-0.016 ± 0.013,0.0065 ± 0.0078
3C:CD141/Thrombomodulin,-0.0215 ± 0.071,-0.008 ± 0.081,0.0125 ± 0.053,-0.034 ± 0.04,-0.0575 ± 0.08,0.012 ± 0.025,0.0215 ± 0.016,0.186 ± 0.0021,-0.021 ± 0.0099,-0.0235 ± 0.026,-0.0245 ± 0.028,-0.015 ± 0.031,-0.052 ± 0.013,-0.0325 ± 0.019,-0.0565 ± 0.0035
3C:CXCL8/IL-8,0.004 ± 0.0057,0.0655 ± 0.021,-0.0225 ± 0.019,-0.019 ± 0.0057,0 ± 0.018,0.013 ± 0.014,0.043 ± 0.013,0.16 ± 0.0099,-0.006 ± 0.0085,0.002,0.0145 ± 0.019,0.035 ± 0.035,0.021 ± 0.013,0.03 ± 0.017,0.0725 ± 0.013
3C:CXCL9/MIG,0.001 ± 0.0099,-0.002 ± 0.0042,-0.005 ± 0.0071,-0.0135 ± 0.0064,-0.0035 ± 0.022,-0.011 ± 0.0057,-0.003 ± 0.0028,0.021 ± 0.018,-0.008 ± 0.0099,-0.0015 ± 0.00071,0.0055 ± 0.012,-0.005 ± 0.0099,-0.018 ± 0.011,-0.0025 ± 0.0064,0.001 ± 0.0057
3C:HLA-DR,-0.019 ± 0.0057,-0.0075 ± 0.015,0.017,0.002,0.011 ± 0.0042,-0.0285 ± 0.0092,-0.013 ± 0.011,-0.0255 ± 0.056,-0.0045 ± 0.00071,-0.004 ± 0.0028,-0.003 ± 0.011,-0.011 ± 0.011,-0.021 ± 0.02,-0.018 ± 0.0085,-0.0615 ± 0.016
3C:Proliferation,0.0035 ± 0.013,-0.0125 ± 0.0078,-0.0245 ± 0.028,-0.015 ± 0.033,0.004 ± 0.035,-0.003 ± 0.0042,0.009 ± 0.03,-0.112 ± 0.037,0.0125 ± 0.0092,0.0095 ± 0.016,0.0055 ± 0.046,-0.0815 ± 0.013,-0.056 ± 0.017,-0.038 ± 0.02,-0.229 ± 0.011
3C:SRB,-0.001,0.001 ± 0.0014,0.002 ± 0.035,0.0005 ± 0.018,-0.0185 ± 0.0064,-0.0105 ± 0.0078,0.0015 ± 0.022,-0.233 ± 0.084,0.0035 ± 0.00071,-0.0035 ± 0.0078,-0.003 ± 0.013,-0.0035 ± 0.0035,-0.0155 ± 0.016,-0.04 ± 0.021,-0.191 ± 0.0028
4H:CCL2/MCP-1,-0.015 ± 0.033,0.0095 ± 0.037,-0.033 ± 0.013,-0.018 ± 0.025,0.025 ± 0.042,-0.0125 ± 0.021,-0.0475 ± 0.0035,-0.11 ± 0.12,0,-0.0195 ± 0.0035,-0.0005 ± 0.023,-0.0285 ± 0.0078,-0.045 ± 0.0057,-0.0725 ± 0.028,-0.05 ± 0.0057
4H:CCL26/Eotaxin-3,0.0365 ± 0.016,0.032 ± 0.027,0.0055 ± 0.0064,-0.0365 ± 0.025,0.032 ± 0.062,0.012 ± 0.014,-0.066 ± 0.0071,-0.0725 ± 0.043,0.001 ± 0.0028,-0.0025 ± 0.00071,0.0005 ± 0.005,-0.038 ± 0.0085,-0.052 ± 0.0014,-0.0885 ± 0.037,-0.129 ± 0.063
4H:CD62P/P-selectin,0.0125 ± 0.021,0.0035 ± 0.022,-0.015 ± 0.0099,-0.007 ± 0.0014,0.0455 ± 0.046,0.0315 ± 0.012,0.0485 ± 0.018,0.084 ± 0.031,0.061 ± 0.021,-0.034 ± 0.079,-0.0275 ± 0.0064,-0.0165 ± 0.021,0.034 ± 0.018,0.064 ± 0.03,0.08 ± 0.033
4H:CD87/uPAR,-0.013 ± 0.023,0.0035 ± 0.012,-0.0465 ± 0.06,-0.055 ± 0.045,-0.006 ± 0.021,-0.0165 ± 0.054,-0.023 ± 0.048,-0.117 ± 0.053,0.013 ± 0.028,0.008 ± 0.033,0.001 ± 0.0042,0.0235 ± 0.056,0.0145 ± 0.022,0.0455 ± 0.0064,0.0065 ± 0.013
4H:CD106/VCAM-1,-0.018 ± 0.0042,-0.0005 ± 0.0035,-0.0035 ± 0.033,0.0125 ± 0.073,0.007 ± 0.078,-0.0025 ± 0.052,-0.0035 ± 0.023,-0.0305 ± 0.0064,0.0005 ± 0.015,-0.0105 ± 0.012,-0.012 ± 0.011,-0.018 ± 0.011,-0.0295 ± 0.005,-0.007 ± 0.0085,-0.0615 ± 0.0092
4H:SRB,0.0015 ± 0.0092,0.0125 ± 0.005,0.008 ± 0.023,0.007 ± 0.0057,-0.02 ± 0.0071,-0.0105 ± 0.0078,0 ± 0.014,-0.0495 ± 0.061,0.0015 ± 0.00071,0.001 ± 0.0028,-0.0035 ± 0.0064,-0.003 ± 0.0042,-0.004 ± 0.0071,-0.017 ± 0.0014,-0.023 ± 0.0099
4H:VEGFR2,0.0055 ± 0.0092,0.06 ± 0.024,-0.012 ± 0.0071,0 ± 0.017,0.031 ± 0.11,0.0185 ± 0.019,0.014 ± 0.0085,0.0265 ± 0.0078,-0.001 ± 0.03,-0.01 ± 0.021,0 ± 0.027,0.003 ± 0.013,-0.03 ± 0.059,-0.02 ± 0.073,0.024 ± 0.047
BE3C:Keratin 8/18,-0.0075 ± 0.011,-0.012,-0.0125 ± 0.011,0.019 ± 0.021,0.011 ± 0.047,-0.0025 ± 0.0021,0.003 ± 0.0028,-0.106 ± 0.05,-0.012 ± 0.0014,-0.01 ± 0.016,-0.0105 ± 0.005,0.0095 ± 0.015,0.0065 ± 0.023,-0.0345 ± 0.012,-0.302 ± 0.0071
